For one data set, the target named is T1, AXL kinase (Homo sapiens, UniProt P30530).
T1 construct: purchased Invitrogen PV4803
T1 sequence (P30530 26-894): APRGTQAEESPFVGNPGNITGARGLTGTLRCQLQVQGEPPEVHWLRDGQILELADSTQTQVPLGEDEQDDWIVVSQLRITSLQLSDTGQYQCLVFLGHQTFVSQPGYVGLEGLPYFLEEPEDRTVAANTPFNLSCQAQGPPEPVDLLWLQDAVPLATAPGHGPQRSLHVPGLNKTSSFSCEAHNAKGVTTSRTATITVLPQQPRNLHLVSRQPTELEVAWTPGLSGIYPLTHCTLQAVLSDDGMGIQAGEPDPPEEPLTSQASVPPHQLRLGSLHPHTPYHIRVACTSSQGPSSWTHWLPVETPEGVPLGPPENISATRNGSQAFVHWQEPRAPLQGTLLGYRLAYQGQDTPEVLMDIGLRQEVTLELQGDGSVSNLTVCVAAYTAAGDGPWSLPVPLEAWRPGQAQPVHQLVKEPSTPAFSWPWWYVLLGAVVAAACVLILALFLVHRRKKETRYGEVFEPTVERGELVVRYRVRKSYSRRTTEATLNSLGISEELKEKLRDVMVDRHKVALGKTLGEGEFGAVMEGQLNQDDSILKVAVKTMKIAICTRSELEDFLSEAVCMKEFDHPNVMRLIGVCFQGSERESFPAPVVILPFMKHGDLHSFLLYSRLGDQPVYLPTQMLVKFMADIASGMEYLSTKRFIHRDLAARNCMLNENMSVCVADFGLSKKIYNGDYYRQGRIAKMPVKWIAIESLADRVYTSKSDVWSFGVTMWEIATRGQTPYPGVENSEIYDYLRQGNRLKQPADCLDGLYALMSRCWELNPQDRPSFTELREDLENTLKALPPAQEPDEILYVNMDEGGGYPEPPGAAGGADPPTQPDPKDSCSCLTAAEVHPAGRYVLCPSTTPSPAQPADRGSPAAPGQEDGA
Briefly: IC50 test on AXL kinase (Z′-LYTE FRET kinase activity detection). It is filed as biochemical. The settings on record: for IC50: Z′-LYTE FRET peptide assay, 1 h reaction; for inhibitory activity on AXL kinase: competitive experiment with ATP, in words. Summed up: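 AXL kinase with Z′-LYTE Tyr 2 FRET peptide, ATP and graded compound concentrations reacted 1 h, then site-specific protease cleaved non-phosphorylated peptide for 1 h. Emission at 445 and 520 nm with 400 nm excitation gave the IC50.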

The nature of data set [1]: In vivo pharmacokinetic and bioavailability experiments of rats. On the set-up: species or system SD rats. The conditions noted are these: for pharmacokinetic parameter, overall judgement: hydrochlorides, in words; for bioavailability: po, 25 mg/kg, read-out: F (oral bioavailability). The method, then:
Pharmacokinetic and bioavailability experiments of rats. SD rats were administered orally (25 mg/kg) and intravenously (2.5 to 5 mg/kg) at a single dose. Animal blood samples were taken at appropriate time points after administration, heparin was added as anticoagulant, and same were centrifuged at 8000 rpm/min for 6 minutes, the supernatant was then taken and stored at −20° C. for HPLC-MS analysis. The proteins in blood samples were precipitated with acetonitrile at 12000 rpm for 10 min, and the supernatant was used for HPCL-MS analysis. Data were fit using DAS2.0 to obtain compartmental model and non-compartmental model parameters, respectively. The oral bioavailability of each compound was calculated according to AUC data.

Where [2] appears, read: Sprague-Dawley, rat, plasma, SD rats, Po, 25 mg/kg single dose.
The mark [3] stands for this setting: Sprague-Dawley, rat, plasma, SD rats, Po, 25 mg/kg single dose, read-out: Cmax.
[4] abbreviates: Sprague-Dawley, rat, plasma, SD rats, iv, 5 mg/kg single dose.
[5] abbreviates: Sprague-Dawley, rat, plasma, SD rats, iv, 5 mg/kg single dose, read-out: Cmax.
The mark [6] stands for this setting: SD rats, Po, 25 mg/kg single dose.
[7] abbreviates: SD rats, iv, 2.5 mg/kg single dose.

The text below walks through data of patent US10683278B2 (JINAN UNIVERSITY, priority 2015, dated 2020).

Read-outs that look alike come from different tables or passages of the source.

The term IC50 denotes the concentration that inhibits the measured activity by half. One may read the bioavailability as dose-corrected exposure relative to a reference, in per cent. For orientation: AUC(0-inf) means the area under the concentration-time curve extrapolated to infinity. For orientation: AUC(0-t) means the area under the concentration-time curve up to a stated or last time point. A low value points to low exposure. The half-life is the time in which the quantity being followed falls by half. Lower therefore signals fast loss. What is called Cmax is the maximum level reached in the sampled fluid or tissue. In general, clearance refers to a measure of how efficiently the substance is removed, as volume per time. Consider `CCc1ccc2c(c1)c(=O)c(C(=O)Nc1ccc(Oc3ncnc4cc(OCCCN5CCOCC5)c(OC)cc34)c(F)c1)c(C)n2C` [GDL5000123, 6-ethyl-N-(3-fluoro-4-((6-methoxy-7-(3-morpholinopropoxy)quinazolin-4-yl)oxy)phenyl)-1,2-dimethyl-4-oxo-1,4-dihydroquinoline-3-carboxamide], for which, on AXL kinase, the IC50 is 8 nM and the “inhibitory activity on AXL kinase” value was “strong inhibitory activity”. For the same compound, in data set [1] (SD rats), the “pharmacokinetic parameter, overall judgement” value (“pharmacokinetic parameter” for short) was “appropriate pharmacokinetic parameter”. For the same compound, the bioavailability in data set [1] (Sprague-Dawley, rat, plasma) is 23.5%. Further, in data set [1] (setting [2]), the AUC(0-inf) came to 118000 ng·h/mL, the AUC(0-t) turned out to be 51500 ng·h/mL and the half-life is 26.7 h. For the same compound, in data set [1] (setting [3]), the Cmax turned out to be 3080 ng/mL. In data set [1] (setting [4]), the AUC(0-inf) stood at 47700 ng·h/mL, the AUC(0-t) came out at 43800 ng·h/mL, the clearance was 1.83 mL/min/kg and the half-life is 6.7 h. Moreover, the peak concentration (Cmax) in data set [1] (setting [5]) was determined as 6480 ng/mL.

For `CCc1ccc2c(c1)c(=O)c(C(=O)Nc1ccc(Oc3ncnc4cc(OCCN(C)C)c(OC)cc34)c(F)c1)c(C)n2C` [GDL5000128, N-(4-(7-(2-(dimethylamino)ethoxy)-6-methoxyquinazolin-4-yloxy)-3-fluorophenyl)-6-ethyl-1,2-dimethyl-4-oxo-1,4-dihydroquinoline-3-carboxamide], on AXL kinase, the midpoint of inhibition, the IC50, lay at 6 nM and the “inhibitory activity on AXL kinase” value is “strong inhibitory activity”. Moreover, the “pharmacokinetic parameter” value in data set [1] (SD rats) is “appropriate pharmacokinetic parameter”. In data set [1] (Sprague-Dawley, rat, plasma), the bioavailability worked out at 44.3%. Moreover, in data set [1] (setting [2]), the AUC(0-inf) is 25600 ng·h/mL, the area under the curve AUC(0-t) turned out to be 25100 ng·h/mL and the half-life is 4.59 h. Further, the Cmax in data set [1] (setting [3]) was determined as 4630 ng/mL. Also, in data set [1] (setting [4]), the AUC(0-inf) came to 11600 ng·h/mL, the AUC(0-t) came out at 11300 ng·h/mL, the clearance is 7.5 mL/min/kg and the half-life is 5.82 h. Further, in data set [1] (setting [5]), the peak concentration (Cmax) turned out to be 16800 ng/mL.

In the case of `CCc1ccc2c(c1)c(=O)c(C(=O)Nc1ccc(Oc3ncnc4cc(OCCCN5CCN(C)CC5)c(OC)cc34)c(F)c1)c(C)n2C` [GDL5000138, 6-ethyl-N-(3-fluoro-4-(6-methoxy-7-(3-(4-methylpiperazin-1-yl)propoxy)quinazolin-4-yloxy)phenyl)-1,2-dimethyl-4-oxo-1,4-dihydroquinoline-3-carboxamide], on AXL kinase, half-maximal inhibition (IC50) required 3 nM and the “inhibitory activity on AXL kinase” value is “strong inhibitory activity”. In addition, the “pharmacokinetic parameter” value in data set [1] (SD rats) is “appropriate pharmacokinetic parameter”. The bioavailability in data set [1] (Sprague-Dawley, rat, plasma) amounted to 27.5%. In data set [1] (setting [2]), the AUC(0-inf) came to 31300 ng·h/mL, the AUC(0-t) was 11300 ng·h/mL and the half-life was 34.8 h. Further, the Cmax in data set [1] (setting [3]) amounted to 656 ng/mL. Further, in data set [1] (setting [4]), the AUC(0-inf) came out at 8530 ng·h/mL, the AUC(0-t) came to 8220 ng·h/mL, the clearance was 9.83 mL/min/kg and the half-life was 5.72 h. In data set [1] (setting [5]), the Cmax is 3560 ng/mL.

In turn, `CCc1ccc2c(c1)c(=O)c(C(=O)Nc1ccc(Oc3ncnc4[nH]cc(-c5ccccc5)c34)c(F)c1)c(C)n2C` [TL4800075, 6-ethyl-N-(3-fluoro-4-((5-phenyl-7H-pyrrolo[2,3-d]pyrimidin-4-yl)oxy)phenyl)-1,2-dimethyl-4-oxo-1,4-dihydroquinoline-3-carboxamide] displayed an IC50 against AXL kinase of 6 nM. Moreover, in data set [1] (setting [6]), the “AUC(0-∞)” value was found to be 505.71 ng·h/mL, the Cmax was determined as 121.74 ng/mL and the T1/2 was determined as 3.72 h. In data set [1] (setting [7]), the “AUC(0-∞)” value stood at 3029.64 ng·h/mL, the CL came to 13.8 mL/min/kg, the Cmax was found to be 2910.13 ng/mL and the T1/2 was 0.87 h. Further, the bioavailability in data set [1] (Sprague-Dawley, rat, plasma) came out at 1.23%. Besides, in data set [1] (setting [2]), the area under the curve AUC(0-t) is 371 ng·h/mL. The AUC(0-t) in data set [1] (Sprague-Dawley, rat, plasma, SD rats, iv, 2.5 mg/kg single dose) was found to be 3020 ng·h/mL.

In turn, `CCc1ccc2c(c1)c(=O)c(C(=O)Nc1ccc(Oc3ncnc4cc(OC)c(OC)cc34)c(F)c1)c(C)n2C` [TL4800191, N-(4-(6,7-dimethoxyquinazolin-4-yloxy)-3-fluorophenyl)-6-ethyl-1,2-dimethyl-4-oxo-1,4-dihydroquinoline-3-carboxamide] displayed a half-inhibitory concentration (IC50) at AXL kinase of 4 nM. Also, the “F (oral bioavailability)” value in data set [1] (SD rats, Po 25 mg/kg vs iv 2.5 to 5 mg/kg, calculated according to AUC data) is recorded as 14.9%. In data set [1] (setting [6]), the “AUC(0-∞)” value was 31505 ng·h/mL, the CL is 15 mL/min/kg, the Cmax stood at 1967 ng/mL and the T1/2 came out at 10.2 h. This compound also registered an AUC(0-t) in data set [1] (setting [2]) of 31300 ng·h/mL. In data set [1] (setting [4]), this compound showed an AUC(0-inf) of 42300 ng·h/mL, an AUC(0-t) of 30500 ng·h/mL, a clearance of 1.67 mL/min/kg and a half-life of 25.2 h. For the same compound, in data set [1] (setting [5]), the Cmax came out at 1170 ng/mL.

With `COc1cc2ncnc(Oc3ccc(NC(=O)c4cn5c6c(c(N7CCC(O)CC7)c(F)cc6c4=O)CCC5C)cc3F)c2cc1OC` (stereo not shown) [TL4830031, N-(4-((6,7-dimethoxyquinazolin-4-yl)oxy)-3-fluorophenyl)-9-fluoro-8-(4-hydroxypiperidin-1-yl)-5-methyl-1-oxo-1,5,6,7-tetrahydropyrido[3,2,1-ij]quinoline-2-carboxamide], the IC50 at AXL kinase is 28 nM. Further, in data set [1] (Sprague-Dawley, rat, plasma), the bioavailability worked out at 12.1%. In data set [1] (setting [2]), this compound had an AUC(0-inf) of 25900 ng·h/mL, an AUC(0-t) of 24400 ng·h/mL and a half-life of 5.68 h. Further, in data set [1] (setting [3]), the Cmax came to 2390 ng/mL. Further, in data set [1] (setting [4]), the AUC(0-inf) amounted to 20700 ng·h/mL, the AUC(0-t) came out at 20300 ng·h/mL, the clearance is 2 mL/min/kg and the half-life was 4.26 h. Besides, the Cmax in data set [1] (setting [5]) was found to be 4360 ng/mL.
